This experiment has as its system HLA-A*24. The experiment is described as follows: MHC binding assay, UV-ligand exchange with beta2m ELISA, HLA-A*24. Also on record: species or system human. As to conditions: binding to HLA-A*24 ranged by peptide exchange yield (UV-ligand exchange, beta2m ELISA). An excerpt: Candidate peptides for T cell based therapies according to the present invention were further tested for their MHC binding capacity (affinity). The individual peptide-MHC complexes were produced by UV-ligand exchange, where a UV-sensitive peptide is cleaved upon UV-irradiation, and exchanged with the peptide of interest as analyzed. Only peptide candidates that can effectively bind and stabilize the peptide-receptive MHC molecules prevent dissociation of the MHC complexes. To determine the yield of the exchange reaction, an ELISA was performed based on the detection of the light chain (ß2 m) of stabilized MHC complexes. The assay was performed as generally described in Rodenko et al. (Rodenko et al., 2006).
96 well MAXISorp plates (NUNC) were coated over night with 2 ug/ml streptavidin in PBS at room temperature, washed 4× and blocked for 1 h at 37° C. in 2% BSA containing blocking buffer. […] Peptide-MHC monomers of the UV-exchange reaction were diluted 100 fold in blocking buffer. Samples were incubated for 1 h at 37° C., washed four times, incubated with 2 ug/ml HRP conjugated anti-β2 m for 1h at 37° C., washed again and detected with TMB solution that is stopped with […]. Absorption was measured at 450 nm. Candidate peptides that show a high exchange yield (preferably higher than 50%, most preferred higher than 75%) are generally preferred for a generation and production of antibodies or fragments thereof, and/or T cell receptors or fragments thereof, as they show sufficient avidity to the MHC molecules and prevent dissociation of the MHC complexes.
(In general: An ELISA detects its analyte on a solid surface through an enzyme-linked reagent.)

As for “310 (IYAPTLLVF; listed as Homo sapiens) [compound 310]”, the Peptide exchange result is listed as “+++ (50%-75% = +++)”.

Consider “386 (TFSDVEAHF; listed as Homo sapiens) [compound 386]”, for which the Peptide exchange entry was “+++ (50%-75% = +++)”. With “120 (GYIEHFSLW; listed as Homo sapiens) [compound 120]” the entry was “++++ (>=75% = ++++)”.

Take “235 (VYKDSIYYI; listed as Homo sapiens) [compound 235]”: the Peptide exchange result is recorded as “+++ (50%-75% = +++)”. The result for “140 (RYLINSYDF; listed as Homo sapiens) [compound 140]” reads “++++ (>=75% = ++++)”. The result for “261 (GYIKLINFI; listed as Homo sapiens) [compound 261]” reads “++++ (>=75% = ++++)”; that for “233 (QYLTAAALHNL; listed as Homo sapiens) [compound 233]”, “+++ (50%-75% = +++)”. The result for “116 (AYVIAVHLF; listed as Homo sapiens) [compound 116]” reads “++++ (>=75% = ++++)”; that for “205 (VYPVVLNQI; listed as Homo sapiens) [compound 205]”, “+++ (50%-75% = +++)”; that for “296 (SYQVIFQHF; listed as Homo sapiens) [compound 296]”, “++++ (>=75% = ++++)”. On to “291 (YYLGSGRETF; listed as Homo sapiens) [compound 291]”, for which the Peptide exchange result is “+++ (50%-75% = +++)”. For “352 (QYGGDLTNTF; listed as Homo sapiens) [compound 352]”, the Peptide exchange entry is reported as “+++ (50%-75% = +++)”. With “372 (VYVIEPHSMEF; listed as Homo sapiens) [compound 372]” the entry was “+++ (50%-75% = +++)”. With “227 (IYRFITERF; listed as Homo sapiens) [compound 227]” the entry was “+++ (50%-75% = +++)”; with “236 (VYLPKIPSW; listed as Homo sapiens) [compound 236]”, “+++ (50%-75% = +++)”; with “153 (VYVPFGGKSMITF; listed as Homo sapiens) [compound 153]”, “++++ (>=75% = ++++)”.

As to “114 (QYLDGTWSL; listed as Homo sapiens) [compound 114]”, the Peptide exchange entry was “++++ (>=75% = ++++)”.

For “256 (VFGKSAYLF; listed as Homo sapiens) [compound 256]”, the Peptide exchange entry is recorded as “+++ (50%-75% = +++)”.

With “301 (KFDDVTMLF; listed as Homo sapiens) [compound 301]”, the Peptide exchange entry is listed as “++++ (>=75% = ++++)”.

Regarding “368 (KYQNVKHNL; listed as Homo sapiens) [compound 368]”, the Peptide exchange entry is recorded as “+++ (50%-75% = +++)”. With “145 (VYALKVRTI; listed as Homo sapiens) [compound 145]” the entry was “+++ (50%-75% = +++)”; with “306 (VYPAEQPQI; listed as Homo sapiens) [compound 306]”, “+++ (50%-75% = +++)”. With “108 (PYLVVIHTL; listed as Homo sapiens) [compound 108]” the entry was “+++ (50%-75% = +++)”; with “191 (TYPDGTYTGRIF; listed as Homo sapiens) [compound 191]”, “+++ (50%-75% = +++)”; with “124 (TYKDYVDLF; listed as Homo sapiens) [compound 124]”, “+ (<20% = +)”. With “361 (TYADIGGLDNQI; listed as Homo sapiens) [compound 361]” the entry was “+++ (50%-75% = +++)”; with “131 (EYLDRIGQLFF; listed as Homo sapiens) [compound 131]”, “+++ (50%-75% = +++)”.

Regarding “193 (LYLENNAQTQF; listed as Homo sapiens) [compound 193]”, the Peptide exchange entry is on record as “+++ (50%-75% = +++)”.

With “388 (IYGEKTYAF; listed as Homo sapiens) [compound 388]”, the Peptide exchange result is given as “+++ (50%-75% = +++)”.

Regarding “240 (YYFFVQEKI; listed as Homo sapiens) [compound 240]”, the Peptide exchange entry was “+++ (50%-75% = +++)”. The result for “121 (RYGLPAAWSTF; listed as Homo sapiens) [compound 121]” reads “+++ (50%-75% = +++)”. With “218 (LYSELNKWSF; listed as Homo sapiens) [compound 218]” the entry was “+++ (50%-75% = +++)”; with “224 (PYFFANQEF; listed as Homo sapiens) [compound 224]”, “+++ (50%-75% = +++)”. With “360 (VFSPDGHLF; listed as Homo sapiens) [compound 360]” the entry was “+++ (50%-75% = +++)”. In the case of “100 (VYIESRIGTSTSF; listed as Homo sapiens) [compound 100]”, the Peptide exchange result was “+++ (50%-75% = +++)”. The result for “123 (VYTPVLEHL; listed as Homo sapiens) [compound 123]” reads “++ (20%-49% = ++)”; that for “276 (QYLDVLHAL; listed as Homo sapiens) [compound 276]”, “++++ (>=75% = ++++)”; that for “242 (VYGEPRELL; listed as Homo sapiens) [compound 242]”, “+++ (50%-75% = +++)”. With “381 (KYPASSSVF; listed as Homo sapiens) [compound 381]” the entry was “+++ (50%-75% = +++)”; with “109 (LFITGGQFF; listed as Homo sapiens) [compound 109]”, “++++ (>=75% = ++++)”.

For the substance “376 (VYTPVASRQSL; listed as Homo sapiens) [compound 376]”, the Peptide exchange result is “+++ (50%-75% = +++)”. Consider “213 (SYAPPSEDLFL; listed as Homo sapiens) [compound 213]”, for which the Peptide exchange entry was “++ (20%-49% = ++)”. With “293 (VYPHFSTTNLI; listed as Homo sapiens) [compound 293]” the entry was “++++ (>=75% = ++++)”; with “285 (VYVGDALLHAI; listed as Homo sapiens) [compound 285]”, “+++ (50%-75% = +++)”; with “374 (VFLPRVTEL; listed as Homo sapiens) [compound 374]”, “++ (20%-49% = ++)”. The result for “182 (AYAQLGYLLF; listed as Homo sapiens) [compound 182]” reads “++++ (>=75% = ++++)”; that for “318 (TYSNSAFQYF; listed as Homo sapiens) [compound 318]”, “+++ (50%-75% = +++)”; that for “247 (SFTKTSPNF; listed as Homo sapiens) [compound 247]”, “+++ (50%-75% = +++)”.

“377 (QYTPHSHQF; listed as Homo sapiens) [compound 377]”: the Peptide exchange entry is “+++ (50%-75% = +++)”. Turning to “228 (IYQYVADNF; listed as Homo sapiens) [compound 228]”, the Peptide exchange result is given as “+++ (50%-75% = +++)”. The result for “231 (AFADVSVKF; listed as Homo sapiens) [compound 231]” reads “++++ (>=75% = ++++)”. With “206 (NYLDVATFL; listed as Homo sapiens) [compound 206]” the entry was “++++ (>=75% = ++++)”.

In the case of “141 (SYNGHLTIWF; listed as Homo sapiens) [compound 141]”, the Peptide exchange entry is “+++ (50%-75% = +++)”.

For the substance “341 (SYLTQHQRI; listed as Homo sapiens) [compound 341]”, the Peptide exchange entry was “+++ (50%-75% = +++)”. The result for “270 (YYSQESKVLYL; listed as Homo sapiens) [compound 270]” reads “+++ (50%-75% = +++)”.

In the case of “364 (KYLNENQLSQL; listed as Homo sapiens) [compound 364]”, the Peptide exchange entry is “+++ (50%-75% = +++)”. Turning to “305 (NYENKQYLF; listed as Homo sapiens) [compound 305]”, the Peptide exchange entry is recorded as “++++ (>=75% = ++++)”. The result for “113 (IYSFHTLSF; listed as Homo sapiens) [compound 113]” reads “+++ (50%-75% = +++)”. With “239 (VYAIFRILL; listed as Homo sapiens) [compound 239]” the entry was “+++ (50%-75% = +++)”. On to “192 (RYSTFSEIF; listed as Homo sapiens) [compound 192]”, for which the Peptide exchange entry is “+++ (50%-75% = +++)”. The result for “253 (IYGFFNENF; listed as Homo sapiens) [compound 253]” reads “+++ (50%-75% = +++)”; that for “178 (NYSSAVQKF; listed as Homo sapiens) [compound 178]”, “+++ (50%-75% = +++)”.

With “351 (IFHEVPLKF; listed as Homo sapiens) [compound 351]”, the Peptide exchange entry is given as “+++ (50%-75% = +++)”. The result for “199 (SYLNHLNNL; listed as Homo sapiens) [compound 199]” reads “+++ (50%-75% = +++)”; that for “362 (VYNYAEQTL; listed as Homo sapiens) [compound 362]”, “++ (20%-49% = ++)”; that for “264 (LYTETRLQF; listed as Homo sapiens) [compound 264]”, “++++ (>=75% = ++++)”.

These data come from US11541107B2, “Peptides and T cells for use in immunotherapeutic treatment of various cancers” (Immatics Biotechnologies GmbH, priority 2015, dated 2023).
